Source: ChEMBL document CHEMBL4732213, “Discovery of novel ceramide analogs with favorable pharmacokinetic properties and combination with AKT inhibitor against colon cancer” (Eur J Med Chem, 2021)
pIC50: −log10 of the molar value. The source made the active and inactive calls. The calls are words filed in the database; no cut-off is given here.

Legend:
[1] = tested on: T84; test: Antiproliferative activity against human T84 cells measured after 72 hrs by sulforhodamine B assay; format: functional, cell-based; settings: T84, 72 h
[2] = tested on: COLO 205; test: Antiproliferative activity against human COLO 205 cells measured after 72 hrs by sulforhodamine B assay; format: functional, cell-based; settings: COLO 205, 72 h
[3] = tested on: Caco-2; test: Antiproliferative activity against human Caco2 cells measured after 72 hrs by sulforhodamine B assay; format: functional, cell-based; settings: Caco-2, 72 h
[4] = tested on: SW-620; test: Antiproliferative activity against human SW620 cells measured after 72 hrs by sulforhodamine B assay; format: functional, cell-based; settings: SW-620, 72 h
[5] = tested on: GES1; test: Antiproliferative activity against human GES1 cells measured after 72 hrs by sulforhodamine B assay; format: cell-based; settings: GES1, 72 h
[6] = Antiproliferative activity against human GM00637 cells measured after 72 hrs by sulforhodamine B assay; format: cell-based; settings: GM00637, 72 h
[7] = tested on: WI-38; test: Antiproliferative activity against human WI-38 cells measured after 72 hrs by sulforhodamine B assay; format: cell-based; settings: WI-38, 72 h
[8] = Antiproliferative activity against human MINO cells measured after 72 hrs by CCK-8 assay; format: functional, cell-based
[9] = tested on: HT-29; test: Additive antiproliferative activity against human HT29 cells assessed as combination index at 10 uM after 72 hrs in presence of 2.5 uM AKT inhibitor MK2206 by Chou-Talalay method; format: functional
[10] = tested on: COLO-678; test: Additive antiproliferative activity against human COLO-678 cells assessed as combination index at 10 uM after 72 hrs in presence of 2.5 uM AKT inhibitor MK2206 by Chou-Talalay method; format: functional
[11] = tested on: COLO-678; test: Additive antiproliferative activity against human COLO-678 cells assessed as combination index at 20 uM after 72 hrs in presence of 5 uM AKT inhibitor MK2206 by Chou-Talalay method; format: functional
[12] = tested on: COLO-678; test: Synergistic antiproliferative activity against human COLO-678 cells assessed as combination index at 30 uM after 72 hrs in presence of 7.5 uM AKT inhibitor MK2206 by Chou-Talalay method; format: functional
[13] = tested on: T84; test: Additive antiproliferative activity against human T84 cells assessed as combination index at 5 uM after 72 hrs in presence of 2.5 uM AKT inhibitor MK2206 by Chou-Talalay method; format: functional
[14] = tested on: T84; test: Additive antiproliferative activity against human T84 cells assessed as combination index at 10 uM after 72 hrs in presence of 5 uM AKT inhibitor MK2206 by Chou-Talalay method; format: functional
[15] = tested on: SW480; test: Synergistic antiproliferative activity against human SW480 cells assessed as combination index at 20 uM after 72 hrs in presence of 10 uM AKT inhibitor MK2206 by Chou-Talalay method; format: functional
[16] = tested on: HT-29; test: Induction of apoptosis in human HT29 cells at 15 uM after 48 hrs in presence of 7.5 uM AKT inhibitor MK2206 by Annexin-V-FITC/PI staining based flow cytometric analysis; format: functional
[17] = tested on: HT-29; test: Induction of ROS generation in human HT29 cells at 20 uM after 16 hrs by flow cytometric analysis; format: functional, cell-based
[18] = tested on: HT-29; test: Induction of ROS generation in human HT29 cells at 20 uM after 16 hrs in presence of 10 uM AKT inhibitor MK2206 by flow cytometric analysis; format: functional, cell-based
[19] = tested on: HT-29; test: Induction of apoptosis in human HT29 cells assessed as inhibition of AKT phosphorylation at 20 uM after 48 hrs by Western blotting analysis; format: functional, cell-based
[20] = tested on: HT-29; test: Induction of apoptosis in human HT29 cells assessed as inhibition of AKT phosphorylation at 20 uM after 48 hrs in presence of 10 uM MK2206 by Western blotting analysis; format: functional, cell-based
[21] = tested on: HT-29; test: Induction of apoptosis in human HT29 cells assessed as increase in PARP cleavage at 20 uM after 48 hrs in presence of 10 uM AKT inhibitor MK2206 by Western blot analysis; format: functional, cell-based
[22] = tested on: HT-29; test: Induction of apoptosis in human HT29 cells assessed as increase in caspase-3 cleavage at 20 uM after 48 hrs in presence of 10 uM AKT inhibitor MK2206 by Western blot analysis; format: functional, cell-based
[23] = tested on: HT-29; test: Induction of cell cycle arrest in human HT29 cells assessed as accumulation at G0/G1 phase at 20 uM after 24 hrs in presence of 10 uM AKT inhibitor MK2206 by PI staining based flow cytometry analysis; format: functional
[24] = tested on: HT-29; test: Downregulation of c-Myc protein expression level in human HT29 cells at 20 uM incubated for 24 hrs in presence of 10 uM AKT inhibitor MK2206 by Western blotting analysis; format: functional, cell-based
[25] = tested on: HT-29; test: Downregulation of c-Myc protein expression level in human HT29 cells at 20 uM incubated for 24 hrs by Western blotting analysis; format: functional, cell-based
[26] = tested on: HT-29; test: Down regulation of p-RB expression in human HT29 cells at 20 uM incubated for 24 hrs in presence of 10 uM AKT inhibitor MK2206 by Western blotting analysis; format: functional, cell-based
[27] = tested on: HT-29; test: Down regulation of cyclin A expression in human HT29 cells at 20 uM incubated for 24 hrs in presence of 10 uM AKT inhibitor MK2206 by Western blotting analysis; format: functional, cell-based
[28] = tested on: HT-29; test: Down regulation of CDK2 expression in human HT29 cells at 20 uM incubated for 24 hrs in presence of 10 uM AKT inhibitor MK2206 by Western blotting analysis; format: functional, cell-based
[29] = tested on: HT-29; test: Down regulation of CDK4 expression in human HT29 cells at 20 uM incubated for 24 hrs in presence of 10 uM AKT inhibitor MK2206 by Western blotting analysis; format: functional, cell-based
[30] = Tmax in BALB/c mouse at 50 mg/kg, ip; format: ADME, organism-based; settings: in vivo
[31] = AUC(0 to t) in BALB/c mouse at 50 mg/kg, ip; format: ADME, organism-based; design: dose 50 mg/kg; settings: in vivo
[32] = AUC(0 to infinity) in BALB/c mouse at 10 mg/kg, iv; format: ADME, organism-based; design: route intravenous, time infinity, dose 10 mg/kg; settings: in vivo
[33] = Half life in BALB/c mouse at 50 mg/kg, ip; format: ADME, organism-based; settings: in vivo
[34] = Half life in BALB/c mouse at 10 mg/kg, iv; format: ADME, organism-based; settings: in vivo
[35] = tested on: HT-29; test: Antitumor activity against human HT-29 cells xenografted in BALB/c nude mouse assessed as tumor growth inhibition at 100 mg/kg/day, ip measured every 3 days in presence of 50 mg/kg AKT inhibitor MK2206 by electronic caliper method; format: functional; settings: HT-29, ip, 72 h, time 3 day, read-out: TGI
[36] = tested on: HT-29; test: Antitumor activity against human HT-29 cells xenografted in BALB/c nude mouse assessed as reduction in tumor weight at 100 mg/kg/day, ip measured every 3 days in presence of 50 mg/kg AKT inhibitor MK2206 by electronic caliper method; format: functional, organism-based; settings: time 3.0 day
[37] = Toxicity in BALB/c nude mouse xenografted with human HT-29 cells assessed as effect on body weight at 100 mg/kg/day, ip measured every 3 day by electronic caliper method; format: organism-based; settings: in vivo, 72 h
[38] = Toxicity in BALB/c nude mouse xenografted with human HT-29 cells assessed as effect on body weight at 100 mg/kg/day, ip measured every 3 day in presence of 50 mg/kg AKT inhibitor MK2206 by electronic caliper method; format: organism-based; settings: in vivo, 72 h

SMILES: CCCCCCCOc1ccc(CCC(CO)(CO)NC(C)=O)c2ccccc12
- pIC50 [1]: 4.83
- pIC50 [2]: 4.74
- pIC50 [3]: 4.55
- pIC50 [4]: 4.53
- pIC50 [5]: 4.38
- pIC50 [6]: 4.32
- pIC50 [7]: 4.29
- pIC50 [8]: 4.88
- CI [9]: 1.05
- CI [10]: 0.87
- CI [11]: 0.89
- CI [12]: 0.43
- CI [13]: 1.1
- CI [14]: 1.01
- CI [15]: 0.62
- Activity [16]: 40%
- Activity [17]: inactive
- Activity [18]: Active
- Activity [19]: Active
- Activity [20]: inactive
- Activity [21]: Active
- Activity [22]: Active
- Activity [23]: Active
- Activity [24]: Active
- Activity [25]: inactive
- Activity [26]: Active
- Activity [27]: Active
- Activity [28]: Active
- Activity [29]: Active
- Tmax [30]: 0.75 h
- AUC(0-t) [31]: 15.6 µg·h/mL
- AUC(0-inf) [32]: 3.06 µg·h/mL
- half-life [33]: 3.3 h
- half-life [34]: 3.12 h
- inhibition in vivo at 100 mg/kg/day [35]: 47.5%
- Activity [36]: Active
- Activity [37]: Non-Toxic
- Activity [38]: Non-Toxic
